The target of one assay is T1, TSSK1 (Homo sapiens, UniProt Q9BXA7).
T1 sequence (Q9BXA7 1-367): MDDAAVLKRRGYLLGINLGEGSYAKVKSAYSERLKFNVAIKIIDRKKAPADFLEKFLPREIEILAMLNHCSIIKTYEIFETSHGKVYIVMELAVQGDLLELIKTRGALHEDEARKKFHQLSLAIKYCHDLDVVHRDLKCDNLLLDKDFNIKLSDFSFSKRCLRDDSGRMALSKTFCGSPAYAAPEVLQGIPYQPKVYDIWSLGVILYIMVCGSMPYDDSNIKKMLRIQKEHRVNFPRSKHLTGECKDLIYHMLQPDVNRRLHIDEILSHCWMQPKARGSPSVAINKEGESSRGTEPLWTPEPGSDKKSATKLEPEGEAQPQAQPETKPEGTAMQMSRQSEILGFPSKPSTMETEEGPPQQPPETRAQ
In words: Kinase assay TSSK1 (Table III). The following applies: read-out: Target biochemical activity IC50 TSSK1. The method, then: (§1) Kinase assays. The compounds were tested for their ability to inhibit kinases.

The next assay addresses SRC (Homo sapiens, UniProt P12931). In words: Kinase assay SRC (Table III). The following applies: read-out: Target biochemical activity IC50 SRC. The method, then:
as §1

The next assay deals with CDK7 (Homo sapiens, UniProt P50613). In words: Kinase assay CDK7 (Table III). To be noted: read-out: Target biochemical activity IC50 CDK7. The method, then: as §1
Sequence of CDK7 (P50613 whole entry, species assumed): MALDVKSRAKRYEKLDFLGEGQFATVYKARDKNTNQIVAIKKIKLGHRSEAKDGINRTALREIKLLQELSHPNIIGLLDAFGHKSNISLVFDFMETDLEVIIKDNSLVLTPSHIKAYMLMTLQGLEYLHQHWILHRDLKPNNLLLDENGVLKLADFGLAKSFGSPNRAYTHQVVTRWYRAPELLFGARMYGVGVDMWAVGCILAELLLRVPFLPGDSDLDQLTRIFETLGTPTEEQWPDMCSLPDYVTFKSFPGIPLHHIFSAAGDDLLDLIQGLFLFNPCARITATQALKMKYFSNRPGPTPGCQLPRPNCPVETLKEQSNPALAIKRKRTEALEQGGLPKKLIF
Sequence of CDK7 (P51946 whole entry partner, species assumed): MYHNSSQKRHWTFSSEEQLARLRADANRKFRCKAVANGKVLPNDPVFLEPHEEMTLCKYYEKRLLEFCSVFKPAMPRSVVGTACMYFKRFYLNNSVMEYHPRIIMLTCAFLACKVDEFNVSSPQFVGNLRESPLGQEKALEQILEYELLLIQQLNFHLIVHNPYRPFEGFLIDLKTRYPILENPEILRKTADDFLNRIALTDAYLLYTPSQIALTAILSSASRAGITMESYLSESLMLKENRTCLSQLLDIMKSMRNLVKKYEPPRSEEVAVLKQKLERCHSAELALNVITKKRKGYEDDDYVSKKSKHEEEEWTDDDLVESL
Sequence of CDK7 (P51948 whole entry partner, species assumed): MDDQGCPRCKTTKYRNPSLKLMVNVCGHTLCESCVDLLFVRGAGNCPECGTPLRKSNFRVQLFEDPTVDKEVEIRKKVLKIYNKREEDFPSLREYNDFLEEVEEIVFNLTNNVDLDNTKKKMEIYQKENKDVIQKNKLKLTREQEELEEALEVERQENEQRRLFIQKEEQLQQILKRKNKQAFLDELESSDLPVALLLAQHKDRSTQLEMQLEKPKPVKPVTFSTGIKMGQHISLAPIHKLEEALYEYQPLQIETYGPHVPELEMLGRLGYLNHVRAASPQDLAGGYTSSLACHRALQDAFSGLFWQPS
The next assay deals with CDK9 (Homo sapiens, UniProt P50750). In words: CDK9 inhibitory activity, kinase assays (Table III). The following applies: read-out: Target biochemical activity IC50 CDK9. The method, then:
as §1

For another assay, the system named is PC-3M-luc. Put plainly: 72 h MTT cell viability PC-3M-luc. The format is cell-based. The following applies: Homo sapiens. The text has this: (§2) MIT cytotoxicity assay. The compounds of the invention were subjected to a standard cellular proliferation assay using human cell lines. HeLa cells (Human cervix adenocarcinoma cell line, ATCC NO, CCL-2); A549 cells (Human lung carcinoma cells line, ATCC NO, CCL-185); U2OS cells (Human osteosarcoma cell line, ATCC NO, HTB-96); Eca-109 cells (Human esophageal carcinoma cell line); HepG2 (Human hepatocellular liver carcinoma cell line, ATCC NO, HB-8065); K562 cells (Human chronic myelogenous leukemia cell line, ATCC NO, CCL-243); SK-MEL-28 (Human malignant melanoma cell line, ATCC NO, HTB-72); Molt-4 (Human acute lymphoblastic leukemia cell line, ATCC NO, CRL-1582); H460 (Human large cell lung cancer cell line, ATCC NO, HTB-177); MDA-MB-231 (Human breast adenocarcinoma cell line, ATCC NO, HTB-26); MCF7 (Human breast adenocarcinoma cell line, ATCC NO, HTB-22); ACHN (Human renal cell adenocarcinoma cell line, ATCC NO, CRL-1611); PC-3M (Human prostate adenocarcinoma cell line, ATCC NO CRL-1435); HL60 (Human acute promyelocytic leukemia cell line, ATCC NO, CCL-240); THP-1 (Human acute monocytic leukemia, ATCC NO, TIB-202); Jurkat (Human acute T cell leukemia cell line, ATCC NO, CRL-2063); HCT-116 (Human colorectal carcinoma cell line, ATCC NO, CCL-247); HT-29 (Human colorectal adenocarcinoma cell line, ATCC NO, HTB-38™); WI-38 (Human normal lung cell line, ATCC NO, CCL-75); MRC-5 (Human normal lung cell line, ATCC NO, CCL-171).
(§3) HepG2, MDA-MB-231, WI-38 and MRC-5 cells were obtained from Shanghai Institute of Cell Biology, Chinese Academy of Sciences (Shanghai 200031, China). A549, HeLa, K562, MCF7, ACHN, H460, U2OS, Eca-109, MCF7, HL60, THP-1, Jurkat, HCT-116, HT-29, PC-3M, SK-MEL-28, Molt-4, H460 and […] cells were purchased from ATCC (American Type Culture Collection, USA).
(§4) Standard 72 h MTT (thiazolye blue; 3-[4,5-dimethylthiazol-2-yl]-2,5-diphenyltetrazolium bromide) assays were performed. Briefly, the cell lines used in this study were recovered and cultured according to the conditions recommended. 4000 cells per well were seeded into 96-well plates according to doubling time and incubated overnight at 37° C. Compounds were prepared in DMSO and a ½ dilution series in 100 μl cell culture media, added to cells (in duplicates) with the final DMSO concentration of 0.025%, and incubated for 72 hrs at 37° C. MTT solution (5 mg/ml) was added at 10 μl per well and incubated in the dark at 37° C. for 4 hr. Culture medium and MTT solution was removed. MTT dye was solubilised with 100 μl per well of DMSO with agitation. Absorbance was read at 562 nm and data analyzed using Sigmoid curve-fitting software Origin 6.0 (MicroCal, LLC, USA) to determine IC50 value.

The test system of a further assay is HL-60. In words: 72 h MTT cell viability HL-60. The assay is classed as cell-based. The following applies: Homo sapiens.
Text: as §2, §3, §4

For another assay, the system named is HepG2. In words: 72 h MTT cytotoxicity assay HepG2. The assay is classed as cell-based. The following applies: Homo sapiens; HepG2, 72 hrs.
Text: as §2, §3, §4
(In general: Formazan colour is commonly taken as a measure of viable cells.)

For another assay, the system named is ACHN-luc. Put plainly: 72 h MTT cell viability ACHN-luc. The following applies: Homo sapiens. The assay is classed as cell-based.
Text: as §2, §3, §4

For a further assay, the system named is WI-38. Put plainly: 72 h MTT cell viability WI-38 (normal lung). The format is cell-based. To be noted: Homo sapiens; WI-38, normal lung cell line.
Text: as §2, §3, §4

Molecules are shown by their SMILES.

Here are results for 15 molecules from patent publication US8309550B2, “Kinase inhibitors and their use as pharmaceutical agents” (Shanghai Genomics, Inc., priority 2011, dated 2012).

Sequence of SRC (P12931 whole entry, species assumed): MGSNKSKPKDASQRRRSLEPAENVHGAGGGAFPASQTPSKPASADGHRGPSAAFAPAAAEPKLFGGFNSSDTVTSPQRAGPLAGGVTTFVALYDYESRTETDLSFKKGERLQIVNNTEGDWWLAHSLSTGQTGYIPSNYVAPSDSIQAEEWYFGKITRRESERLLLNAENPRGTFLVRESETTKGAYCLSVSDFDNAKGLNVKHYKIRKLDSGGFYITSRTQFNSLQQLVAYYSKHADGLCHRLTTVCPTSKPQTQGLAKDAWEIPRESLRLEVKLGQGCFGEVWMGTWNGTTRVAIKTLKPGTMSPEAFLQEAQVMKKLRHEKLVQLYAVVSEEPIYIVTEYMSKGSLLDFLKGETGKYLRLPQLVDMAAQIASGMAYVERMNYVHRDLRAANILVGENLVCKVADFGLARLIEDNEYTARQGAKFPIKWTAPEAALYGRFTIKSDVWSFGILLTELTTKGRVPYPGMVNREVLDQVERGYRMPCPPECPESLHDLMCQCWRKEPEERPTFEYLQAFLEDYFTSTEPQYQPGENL
Sequence of CDK9 (P50750 whole entry, species assumed): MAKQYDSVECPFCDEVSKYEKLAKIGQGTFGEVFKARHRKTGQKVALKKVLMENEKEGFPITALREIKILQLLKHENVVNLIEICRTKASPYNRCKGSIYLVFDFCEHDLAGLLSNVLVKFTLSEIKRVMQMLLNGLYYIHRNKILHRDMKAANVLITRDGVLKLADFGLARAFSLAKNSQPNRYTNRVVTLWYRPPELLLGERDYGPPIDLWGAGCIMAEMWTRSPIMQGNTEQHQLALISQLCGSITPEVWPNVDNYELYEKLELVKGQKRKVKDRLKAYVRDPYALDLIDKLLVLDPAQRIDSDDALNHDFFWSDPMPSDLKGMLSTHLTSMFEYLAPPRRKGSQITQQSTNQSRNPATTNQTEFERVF
Sequence of CDK9 (O60563 whole entry partner, species assumed): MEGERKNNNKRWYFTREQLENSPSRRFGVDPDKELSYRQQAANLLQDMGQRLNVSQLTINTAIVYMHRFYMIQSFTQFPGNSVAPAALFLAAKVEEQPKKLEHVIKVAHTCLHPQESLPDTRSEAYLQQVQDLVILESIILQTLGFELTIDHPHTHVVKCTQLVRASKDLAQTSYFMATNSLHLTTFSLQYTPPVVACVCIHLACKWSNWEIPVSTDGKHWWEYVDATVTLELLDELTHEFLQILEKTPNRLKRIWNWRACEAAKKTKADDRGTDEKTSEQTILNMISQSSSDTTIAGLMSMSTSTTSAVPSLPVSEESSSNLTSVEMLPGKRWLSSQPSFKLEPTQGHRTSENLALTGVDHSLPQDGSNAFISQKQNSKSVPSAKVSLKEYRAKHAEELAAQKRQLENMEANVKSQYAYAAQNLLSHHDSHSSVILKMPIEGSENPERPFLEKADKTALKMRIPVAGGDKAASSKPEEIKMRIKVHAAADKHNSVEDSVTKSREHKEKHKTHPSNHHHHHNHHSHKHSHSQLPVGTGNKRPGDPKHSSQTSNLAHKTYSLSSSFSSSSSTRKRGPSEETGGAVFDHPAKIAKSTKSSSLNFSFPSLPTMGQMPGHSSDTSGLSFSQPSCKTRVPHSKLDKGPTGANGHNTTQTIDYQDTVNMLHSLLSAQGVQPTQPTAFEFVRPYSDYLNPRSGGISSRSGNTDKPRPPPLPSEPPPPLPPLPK

Usually IC50 stands for the point on the concentration scale where inhibition reaches its midpoint. Regarding `CCCn1cc(-c2ccnc(Nc3cccc(S(N)(=O)=O)c3)n2)c2nc(Cl)cc(C)c21` [SG53], the IC50 on TSSK1 was above 10000 nM; on SRC, above 10000 nM; on CDK7, above 10000 nM; at CDK9, 41 nM.

For `CCn1cc(-c2ccnc(Nc3cccc(C#N)c3)n2)c2cccnc21` [Compound 20, 3-(4-(1-Ethyl-1H-pyrrolo[2,3-b]pyridin-3-yl)pyrimidin-2-ylamino)benzonitrile], the IC50 in the assay with PC-3M-luc is above 10000 nM; in the assay with HL-60 it was 3410 nM; with HepG2 it was 1810 nM; with ACHN-luc, above 10000 nM.

As for `CCCn1cc(-c2ccnc(Nc3cccc(S(N)(=O)=O)c3)n2)c2ccncc21` [SG51], the IC50 is 1.6 nM on TSSK1, 200 nM at SRC, 43 nM at CDK7 and 0.6 nM at CDK9.

For the molecule `CCCn1cc(-c2ccnc(Nc3cccc(S(N)(=O)=O)c3)n2)c2ccncc21` [Compound 111, 3-(4-(1-Propyl-1H-pyrrolo[2,3-c]pyridin-3-yl)pyrimidin-2-ylamino)benzenesulfonamide], the IC50 with PC-3M-luc was 6 nM; in the assay with HL-60 it was 10 nM; in the assay with HepG2, 580 nM; in the assay with ACHN-luc, 60 nM.

In the case of `CCCn1cc(-c2ccnc(Nc3ccc(C)c(S(=O)(=O)N4CCOCC4)c3)n2)c2ccncc21` [SG52], the IC50 is above 10000 nM at TSSK1, 3930 nM at SRC, 1950 nM on CDK7 and 0.4 nM on CDK9.

As for `CCCn1cc(-c2ccnc(Nc3cccc(S(N)(=O)=O)c3)n2)c2nc(Cl)cc(C)c21` [Compound 42, 3-(4-(5-Chloro-7-methyl-1-propyl-1H-pyrrolo[3,2-b]pyridin-3-yl)pyrimidin-2-ylamino)benzenesulfonamide], the IC50 with PC-3M-luc is 4060 nM; in the assay with HL-60 it was 1140 nM; with HepG2, 550 nM; in the assay on ACHN-luc, above 10000 nM.

With `CCCn1cc(-c2ccnc(Nc3ccc(S(N)(=O)=O)cc3)n2)c2ccncc21` [Compound 112, 4-(4-(1-Propyl-1H-pyrrolo[2,3-c]pyridin-3-yl)pyrimidin-2-ylamino)benzenesulfonamide], the IC50 was above 10000 nM with WI-38; 27 nM in the assay on PC-3M-luc; 8 nM in the assay on HL-60; 470 nM in the assay with HepG2; 37 nM in the assay with ACHN-luc.

Regarding `CCCn1cc(-c2ccnc(Nc3ccc(S(N)(=O)=O)cc3)n2)c2nc(Cl)cc(C)c21` [SG54], the IC50 at TSSK1 was above 10000 nM; at SRC it was above 10000 nM; at CDK7, above 10000 nM; at CDK9, 57 nM.

As to `CCn1cc(-c2ccnc(Nc3cccc(S(N)(=O)=O)c3)n2)c2cccnc21` [Compound 18, 3-(4-(1-Ethyl-1H-pyrrolo[2,3-b]pyridin-3-yl)pyrimidin-2-ylamino)benzenesulfonamide], the IC50 in the assay on WI-38 was 11100 nM; at SRC, 1050 nM; in the assay with PC-3M-luc, 3550 nM; at CDK7, 146 nM; with HL-60, 1850 nM; in the assay on HepG2, 680 nM. In addition, the IC50 with ACHN-luc came to 2980 nM; on CDK9 it was 13 nM.

With `CCCn1cc(-c2ccnc(Nc3cccc(O)c3)n2)c2cccnc21` [Compound 16, 3-(4-(1-Propyl-1H-pyrrolo[2,3-b]pyridin-3-yl)pyrimidin-2-ylamino)phenol], the IC50 was above 10000 nM in the assay on WI-38, 5110 nM in the assay with PC-3M-luc, 1600 nM in the assay on HepG2 and 7380 nM in the assay with ACHN-luc.

As for `CCCn1cc(-c2ccnc(Nc3ccc(C)c(S(=O)(=O)N4CCOCC4)c3)n2)c2cccnc21` [Compound 24, N-(4-Methyl-3-(morpholinosulfonyl)phenyl)-4-(1-propyl-1H-pyrrolo[2,3-b]pyridin-3-yl)pyrimidin-2-amine], the IC50 is above 10000 nM in the assay on WI-38; 5020 nM with PC-3M-luc; 3490 nM with HL-60; 1320 nM with HepG2; 5580 nM with ACHN-luc.

With `CCCn1cc(-c2ccnc(Nc3cccc(S(N)(=O)=O)c3)n2)c2cccnc21` [Compound 22, 3-(4-(1-Propyl-1H-pyrrolo[2,3-b]pyridin-3-yl)pyrimidin-2-ylamino)benzenesulfonamide], the IC50 with PC-3M-luc turned out to be 3190 nM; with HL-60 it was 2090 nM; in the assay on HepG2, 700 nM; with ACHN-luc, 3740 nM.

Take `CCCn1cc(-c2ccnc(Nc3ccc(C)c(S(=O)(=O)N4CCOCC4)c3)n2)c2ccncc21` [Compound 102, N-(4-Methyl-3-(morpholinosulfonyl)phenyl)-4-(1-propyl-1H-pyrrolo[2,3-c]pyridin-3-yl)pyrimidin-2-amine]: the IC50 in the assay with PC-3M-luc is 1130 nM; with HL-60 it was 230 nM; in the assay on HepG2 it was 500 nM; in the assay on ACHN-luc, 620 nM.

As for `CCCn1cc(-c2ccnc(Nc3ccc(O)cc3)n2)c2cccnc21` [Compound 15, 4-(4-(1-Propyl-1H-pyrrolo[2,3-b]pyridin-3-yl)pyrimidin-2-ylamino)phenol], the IC50 with WI-38 was above 10000 nM; with PC-3M-luc, 10500 nM; with HepG2, 1160 nM; in the assay on ACHN-luc, 7810 nM.

Consider `CCCn1cc(-c2ccnc(Nc3cccc(S(N)(=O)=O)c3)n2)c2ccnc(Cl)c21` [Compound 96, 3-(4-(7-chloro-1-propyl-1H-pyrrolo[2,3-c]pyridin-3-yl)pyrimidin-2-ylamino)benzenesulfonamide], for which the IC50 was above 10000 nM with WI-38; 480 nM with PC-3M-luc; 370 nM with HL-60; 250 nM in the assay with HepG2; 340 nM in the assay with ACHN-luc.
